Data reported in ChEMBL document CHEMBL1126087, “(E)-1,3-dialkyl-7-methyl-8-(3,4,5-trimethoxystyryl)xanthines: potent and selective adenosine A2 antagonists” (J Med Chem, 1992).

Tests used:
Adenosine receptor A1 [1] = target: T1, Adenosine receptor A1 (Cavia porcellus, UniProt P47745)
T1 sequence (P47745 whole entry): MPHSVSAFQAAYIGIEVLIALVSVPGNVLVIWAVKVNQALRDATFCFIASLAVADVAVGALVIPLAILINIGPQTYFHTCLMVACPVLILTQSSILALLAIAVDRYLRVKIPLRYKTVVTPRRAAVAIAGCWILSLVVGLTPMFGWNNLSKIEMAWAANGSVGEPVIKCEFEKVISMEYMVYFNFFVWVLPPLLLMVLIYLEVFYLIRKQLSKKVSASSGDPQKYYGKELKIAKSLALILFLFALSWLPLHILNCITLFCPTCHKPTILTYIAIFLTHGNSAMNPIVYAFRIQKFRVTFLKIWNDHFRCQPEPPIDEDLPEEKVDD
Description: Binding affinity against adenosine A1 receptor from guinea pig forebrain membranes, using N6-[3H]cyclohexyladenosine as radioligand.

Adenosine A2 receptor = Adenosine A2 receptor (Rattus norvegicus, UniProt P29276+P30543)
Adenosine receptor A1 [2] = target: T2, Adenosine receptor A1 (Rattus norvegicus, UniProt P25099)
T2 sequence (P25099 whole entry): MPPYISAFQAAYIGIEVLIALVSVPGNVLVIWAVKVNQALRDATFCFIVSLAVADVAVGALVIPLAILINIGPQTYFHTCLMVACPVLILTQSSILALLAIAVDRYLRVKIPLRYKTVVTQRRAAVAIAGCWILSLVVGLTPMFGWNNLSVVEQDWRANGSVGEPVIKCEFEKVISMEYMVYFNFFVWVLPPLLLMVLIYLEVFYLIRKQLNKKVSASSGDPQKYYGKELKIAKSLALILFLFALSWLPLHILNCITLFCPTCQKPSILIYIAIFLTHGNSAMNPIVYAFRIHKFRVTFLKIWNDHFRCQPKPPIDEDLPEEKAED

Adenosine receptor A1 [3] = target: T2, Adenosine receptor A1; format: cell membranes, Membrane
[4] = target: Adenosine receptor A2a (Homo sapiens) (UniProt P29274)
Chain of Adenosine receptor A2a (Homo sapiens) (P29274 whole entry, looked up): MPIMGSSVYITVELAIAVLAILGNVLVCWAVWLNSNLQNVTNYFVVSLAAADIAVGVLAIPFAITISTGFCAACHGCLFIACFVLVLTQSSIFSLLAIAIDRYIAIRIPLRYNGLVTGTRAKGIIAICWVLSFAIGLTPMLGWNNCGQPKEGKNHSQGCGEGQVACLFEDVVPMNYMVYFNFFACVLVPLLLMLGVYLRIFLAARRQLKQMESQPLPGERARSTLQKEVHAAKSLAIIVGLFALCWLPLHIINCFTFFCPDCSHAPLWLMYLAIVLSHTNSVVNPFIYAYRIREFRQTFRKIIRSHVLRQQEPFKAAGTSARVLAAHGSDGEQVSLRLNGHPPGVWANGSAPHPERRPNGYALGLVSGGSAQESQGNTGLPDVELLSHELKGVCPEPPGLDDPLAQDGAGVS

[5] = Water solubility of the compound; format: ADME; conditions: read-out: S

Ki (Adenosine receptor A1 [1])	Ki ratio (Cavia porcellus)	Ki (Adenosine A2 receptor)	SMILES	further results
> 100000 nM			COc1cc(/C=C/c2nc3c(c(=O)n(C)c(=O)n3C)n2C)cc(OC)c1OC	
560 nM	0.09	6200 nM	CCCn1c(=O)c2nc(CCc3ccccc3)[nH]c2n(CCC)c1=O	
720 nM	48	15 nM	CCCn1c(=O)c2c(nc(/C=C/c3ccccc3)n2C)n(CCC)c1=O	Ki (Adenosine receptor A1 [2]): 220 nM
	0.053	6000 nM	CCCn1c(=O)c2nc(CCC3CCCC3)[nH]c2n(CCC)c1=O	
140 nM			CCCn1c(=O)c2[nH]c(-c3ccc(S(=O)(=O)N(C)CCN(C)C)cc3)nc2n(CCC)c1=O	Ki (Adenosine receptor A1 [3]): 13.9 nM
1300 nM	0.59	2200 nM	CCCn1c(=O)c2c(nc(CCc3ccccc3)n2C)n(CCC)c1=O	
820 nM	0.37	2200 nM	CCCn1c(=O)[nH]c(=O)c2[nH]c(/C=C/c3cc(OC)c(OC)c(OC)c3)nc21	
3500 nM	1.9	1800 nM	CCCn1c(=O)c2c(nc(C/C=C/c3ccccc3)n2C)n(CCC)c1=O	
2300 nM	44	52 nM	CCCCn1c(=O)c2c(nc(/C=C/c3cc(OC)c(OC)c(OC)c3)n2C)n(CCCC)c1=O	
1700 nM			CCCn1c(=O)c2nc(/C=C/c3ccc(OC)c(OC)c3)[nH]c2n(CCC)c1=O	
1400 nM	78	18 nM	CCCn1c(=O)c2c(nc(/C=C/c3ccc(OC)cc3)n2C)n(CCC)c1=O	Ki (Adenosine receptor A1 [2]): 340 nM
1400 nM	15	93 nM	CCCCn1c(=O)c2nc(/C=C/c3cc(OC)c(OC)c(OC)c3)[nH]c2n(CCCC)c1=O	
1800 nM		26 nM	CCCn1c(=O)c2nc(/C=C/c3ccccc3)[nH]c2n(CCC)c1=O	
1300 nM		> 10000 nM	CCCn1c(=O)c2c(nc(CCC3CCCC3)n2C)n(CCC)c1=O	
> 100000 nM			COc1cc(/C=C/c2nc3c(=O)n(C)c(=O)n(C)c3[nH]2)cc(OC)c1OC	
870 nM	0.54	1600 nM	CCCn1c(=O)c2nc(C/C=C/c3ccccc3)[nH]c2n(CCC)c1=O	
> 100000 nM		110 nM	CCCn1c(=O)c2nc(/C=C/c3ccc(OC)cc3)[nH]c2n(CCC)c1=O	
> 100000 nM	> 2100	47 nM	C=CCn1c(=O)c2nc(/C=C/c3cc(OC)c(OC)c(OC)c3)[nH]c2n(CC=C)c1=O	
8100 nM	0.26	> 100000 nM	CCCn1c(=O)c2c(nc(C3CCCC3)n2C)n(CCC)c1=O	Kb [4]: 220 nM
> 100000 nM		7500 nM	CCCn1c(=O)c2c(nc(/C=C/c3ccc(Cl)c(Cl)c3)n2C)n(CCC)c1=O	
2100 nM	150	14 nM	CCCn1c(=O)c2c(nc(/C=C/c3cc(OC)c(OC)c(OC)c3)n2C)n(CCC)c1=O	Ki (Adenosine receptor A1 [2]): 1100 nM
			CCCn1c(=O)c2c(nc(/C=C/c3ccc(OC)c(OC)c3)n2C)n(CCC)c1=O	Ki (Adenosine receptor A1 [2]): 430 nM; solubility [5]: < 10 µg/mL
> 10000 nM		> 10000 nM	CCCn1c(=O)c2c(nc(/C(C)=C/c3ccccc3)n2C)n(CCC)c1=O	
320 nM			CCCn1c(=O)c2[nH]c(CCC3CCCC3)nc2n(CCC)c1=O	
> 100000 nM		> 100000 nM	CCCn1c(=O)c2nc(/C=C/c3ccc(Cl)cc3)[nH]c2n(CCC)c1=O	
> 100000 nM		> 10000 nM	CCCn1c(=O)c2nc(/C(C)=C/c3ccccc3)[nH]c2n(CCC)c1=O	
> 100000 nM		> 100000 nM	CCCn1c(=O)c2nc(/C=C/c3ccc(Cl)c(Cl)c3)[nH]c2n(CCC)c1=O	
	5.4		CCCn1c(=O)c2nc(-c3ccc(S(=O)(=O)N(C)CCN(C)C)cc3)[nH]c2n(CCC)c1=O	
> 10000 nM		49 nM	CCCn1c(=O)c2c(nc(/C=C/c3ccc(Cl)cc3)n2C)n(CCC)c1=O	

SMILES	Ki (Adenosine receptor A1 [1])	Ki ratio (Cavia porcellus)	Ki (Adenosine A2 receptor)	further results
C=CCn1c(=O)c2c(nc(/C=C/c3cc(OC)c(OC)c(OC)c3)n2C)n(CC=C)c1=O	> 100000 nM			
